Our source for the EC50 values is patent US20260285866A1, “MODULATORS OF TRPML, THEIR COMPOSITIONS AND METHODS OF USE” (Caraway Therapeutics, Inc., priority 2024, published 2026).

For orientation: pEC50 means the negative decadic logarithm of the EC50, by convention in mol/L.

One experiment addresses Human TRPML1 (Homo sapiens, UniProt Q9GZU1, L15A/L16A/L577A/L578A). In words: Fluorescent TRPML1 assay (Fluo4-AM, HEK-293 Trex cells expressing hTRPML1). Conditions: fluorescent calcium assay, doxycycline-induced hTRPML1. In kind it is cell-based. Here is the method:
Example 27. Fluorescent TRPML Assays
(§1) HEK-293 Trex cells were stably transfected with a construct consisting of the human coding sequence for TRPML1 cloned into the tet-inducible plasmid pCDNA5 T/O. Mutations were introduced into the TRPML1 sequence to facilitate expression on the cell surface (Silvia Vergarajauregui, Rosa Puertollano Traffic. 2006 March; 7(3): 337-353). Briefly, the cells are cultured in 150 mm round tissue culture dishes containing 20 mL of media. The day before the assay the cells are rinsed with DPBS-Ca-Mg and then treated briefly with Trypsin-EDTA. The Trypsin-EDTA is diluted with growth media, and cells are counted. 38×10^6 cells are re-plated into 150 mm round tissue culture dishes in media containing 0.5 μg/mL doxycycline to induce expression of hTRPML1.
(§2) The day of the experiment cells are lifted from the plates as above and collected by centrifugation. The cells are then suspended in dye loading buffer consisting of Ringer's solution supplemented with 0.1% Pluronic Acid and 1 micromolar Fluo4-AM dye. Cells are loaded for ~60 minutes in the dark with occasional mixing. The cells are collected by centrifugation, the loading media aspirated, and the cells resuspended in 25 mL Ringer's solution and incubated ~60 minutes in the dark. The cells are again collected by centrifugation, rinsed in Ringer's Solution and resuspended to 0.2×10^6 cells/mL in modified Ringer's solution containing 10 mM calcium.
(§3) Compounds are dissolved to a concentration of 10 millimolar with DMSO. Compound plates are created by dispensing compounds into 384 well black wall clear bottom plates (Greiner 781091). Positive and negative controls are included on each plate. Typically, different amounts of each compound are tested ranging from 100 nanoMoles (20 micromolar final concentration) decreasing in half-log steps to 31 picoMoles (6 nanomolar final concentration). Each concentration is typically tested in triplicate.
(§4) 50 microliters of dye-loaded cells are dispensed into each well of the compound assay plate created above. The fluorescence in each well is then determined with an excitation wavelength of 480 nm and an emission wavelength of 540 nm using either a Molecular Devices SpectraMax multimode plate reader or a Hamamatsu FDSS/uCell plate imager.
(§5) The resulting fluorescence for each well is exported as an ascii file and loaded into our LIMS for analysis. The percent activity of each compound at each concentration is determined by comparison to the positive and negative control wells included in each plate.
(§6) EC50 values were calculated using a non-linear regression of Prism. In the table, “A” indicates an EC50 of less than 100 nM, “B” indicates an EC50 range from 100 nM to 500 nM: “C” indicates an EC50 range from 500 nM to 2 μM; and “D” indicates an EC50 greater than 2 μM.

A further experiment has as its target T1, Human TRPML3 (Homo sapiens, UniProt Q8TDD5).
T1 construct: expressed in transfected cells
T1 sequence (Q8TDD5 1-553): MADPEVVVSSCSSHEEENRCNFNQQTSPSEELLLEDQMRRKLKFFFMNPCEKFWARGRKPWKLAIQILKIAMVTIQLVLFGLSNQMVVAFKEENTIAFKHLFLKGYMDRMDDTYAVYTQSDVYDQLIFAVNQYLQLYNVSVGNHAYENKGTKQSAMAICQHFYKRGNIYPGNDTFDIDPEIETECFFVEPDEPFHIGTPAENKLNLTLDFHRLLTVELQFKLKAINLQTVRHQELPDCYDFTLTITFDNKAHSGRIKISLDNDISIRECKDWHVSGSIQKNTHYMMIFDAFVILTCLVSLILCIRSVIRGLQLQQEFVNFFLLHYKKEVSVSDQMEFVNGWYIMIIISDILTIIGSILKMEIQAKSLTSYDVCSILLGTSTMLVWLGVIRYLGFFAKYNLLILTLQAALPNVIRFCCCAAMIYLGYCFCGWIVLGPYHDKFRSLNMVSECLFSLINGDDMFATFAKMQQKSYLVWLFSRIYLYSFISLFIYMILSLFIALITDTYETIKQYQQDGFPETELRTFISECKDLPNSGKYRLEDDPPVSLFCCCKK
In words: Fluorescent TRPML3 assay (as for TRPML1). In kind it is cell-based. Particulars: fluorescent calcium assay as for TRPML1, TRPML3 subtype. On the procedure:
as §1, §2, §3, §4, §5
Assays for TRPML2 and TRPML3 were performed as above for TRPML1, by substituting the appropriate TRPML2 or TRPML3 subtype for the TRPML1.
as §6

pEC50: −log10 of the molar value. Where only a bound is given, the exact number is not on record here.

Chain of Human TRPML1 (Q9GZU1 whole entry L15A/L16A/L577A/L578A): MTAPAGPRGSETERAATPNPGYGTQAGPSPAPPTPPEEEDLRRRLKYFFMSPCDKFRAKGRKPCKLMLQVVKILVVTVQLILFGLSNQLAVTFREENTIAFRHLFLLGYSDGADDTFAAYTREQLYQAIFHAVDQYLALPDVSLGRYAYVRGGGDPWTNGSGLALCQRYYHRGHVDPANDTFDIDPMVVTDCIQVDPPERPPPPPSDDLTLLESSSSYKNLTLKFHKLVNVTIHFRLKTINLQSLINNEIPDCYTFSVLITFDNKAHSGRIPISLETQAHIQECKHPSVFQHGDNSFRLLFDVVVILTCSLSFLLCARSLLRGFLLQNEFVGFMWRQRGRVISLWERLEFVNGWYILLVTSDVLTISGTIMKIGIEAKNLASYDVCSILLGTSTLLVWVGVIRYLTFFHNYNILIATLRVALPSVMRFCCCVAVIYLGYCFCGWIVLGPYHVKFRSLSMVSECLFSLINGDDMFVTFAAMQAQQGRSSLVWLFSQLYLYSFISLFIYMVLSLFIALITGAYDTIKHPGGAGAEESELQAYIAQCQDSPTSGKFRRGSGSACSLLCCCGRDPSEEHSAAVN

For `C[C@@H]1CN(c2ncnc3c2c(-c2ccccc2)cn3-c2cc(C#N)ccn2)[C@@H](C)CN1C(=O)C1(O)CCC1` [Compound 109, 2-(4-((2S,5R)-4-(1-hydroxycyclobutane-1-carbonyl)-2,5-dimethylpiperazin-1-yl)-5-phenyl-7H-pyrrolo[2,3-d]pyrimidin-7-yl)isonicotinonitrile], the pEC50 was more than 7.00 on Human TRPML1 and 5.70 to 6.30 at Human TRPML3.
As to `C[C@@H]1CN(c2ncnc3c2c(-c2ccncc2)cn3-c2cc(F)cc(F)c2)[C@@H](C)CN1C(=O)C(C)(C)O` [Compound 138, 1-((2R,5S)-4-(7-(3,5-difluorophenyl)-5-(pyridin-4-yl)-7H-pyrrolo[2,3-d]pyrimidin-4-yl)-2,5-dimethylpiperazin-1-yl)-2-hydroxy-2-methylpropan-1-one], the pEC50 on Human TRPML1 is less than 5.70.
In the case of `C[C@@H]1CN(c2ncnc3c2c(-c2ccccc2)cn3-c2cc(C#N)ccn2)[C@@H](C)CN1C(=O)C1(O)CC1` [Compound 156, 2-(4-((2S,5R)-4-(1-hydroxycyclopropane-1-carbonyl)-2,5-dimethylpiperazin-1-yl)-5-phenyl-7H-pyrrolo[2,3-d]pyrimidin-7-yl)isonicotinonitrile], the pEC50 at Human TRPML1 is 5.70 to 6.30; on Human TRPML3, less than 5.70.
As to `C[C@@H]1CN(c2ncnc3c2c(C2CC2)cn3-c2cc(C#N)ccn2)[C@@H](C)CN1C(=O)CC(O)(C(F)(F)F)C(F)(F)F` [Compound 162, 2-(5-cyclopropyl-4-((2S,5R)-2,5-dimethyl-4-(4,4,4-trifluoro-3-hydroxy-3-(trifluoromethyl)butanoyl)piperazin-1-yl)-7H-pyrrolo[2,3-d]pyrimidin-7-yl)isonicotinonitrile], on Human TRPML3, the negative-log EC50 (pEC50) is 6.30 to 7.00.
As to `C[C@@H]1CN(c2ncnc3c2c(-c2ccno2)cn3-c2cc(C#N)ccn2)[C@@H](C)CN1C(=O)C(C)(C)O` [Compound 152], the pEC50 on Human TRPML1 is 5.70 to 6.30; at Human TRPML3, less than 5.70.
Taken in the same sequence, the figures for `C[C@@H]1CN(c2ncnc3c2c(-c2ncco2)cn3-c2cc(C#N)ccn2)[C@@H](C)CN1C(=O)C(C)(C)O` [Compound 134, 2-(4-((2S,5R)-4-(2-hydroxy-2-methylpropanoyl)-2,5-dimethylpiperazin-1-yl)-5-(oxazol-2-yl)-7H-pyrrolo[2,3-d]pyrimidin-7-yl)isonicotinonitrile] were 5.70 to 6.30 and less than 5.70.
Take `C[C@@H]1CN(c2ncnc3c2c(-c2ccncc2)cn3-c2cccc(F)c2)[C@@H](C)CN1C(=O)C(C)(C)O` [Compound 139, 1-((2R,5S)-4-(7-(3-fluorophenyl)-5-(pyridin-4-yl)-7H-pyrrolo[2,3-d]pyrimidin-4-yl)-2,5-dimethylpiperazin-1-yl)-2-hydroxy-2-methylpropan-1-one]: the negative-log EC50 (pEC50) at Human TRPML1 and on Human TRPML3 was less than 5.70 in each case.
Consider `C[C@@H]1CN(c2ncnc3c2c(-c2ccccc2)cn3-c2cc(C#N)ccn2)[C@@H](C)CN1C(=O)C(C)(C)O` [Compound 101, 2-(4-((2S,5R)-4-(2-hydroxy-2-methylpropanoyl)-2,5-dimethylpiperazin-1-yl)-5-phenyl-7H-pyrrolo[2,3-d]pyrimidin-7-yl)isonicotinonitrile], for which the values for the pEC50 on Human TRPML1 and at Human TRPML3 were more than 7.00 and 5.70 to 6.30, respectively.
For `CC[C@H]1CN(C(=O)C(C)(C)O)CCN1c1ncnc2c1c(-c1ccccc1)cn2-c1cc(C#N)ccn1` [Compound 111, (S)-2-(4-(2-ethyl-4-(2-hydroxy-2-methylpropanoyl)piperazin-1-yl)-5-phenyl-7H-pyrrolo[2,3-d]pyrimidin-7-yl)isonicotinonitrile], the negative logarithm of the EC50 (pEC50) at Human TRPML1 is 6.30 to 7.00; at Human TRPML3 it was 5.70 to 6.30.
Regarding `C[C@@H]1CN(c2ncnc3c2c(-c2cncnc2)cn3-c2cc(C#N)ccn2)[C@@H](C)CN1C(=O)C(C)(C)O` [Compound 116, 2-(4-((2S,5R)-4-(2-hydroxy-2-methylpropanoyl)-2,5-dimethylpiperazin-1-yl)-5-(pyrimidin-5-yl)-7H-pyrrolo[2,3-d]pyrimidin-7-yl)isonicotinonitrile], the pEC50 on Human TRPML1 and at Human TRPML3 was less than 5.70 throughout.
On to `C[C@@H]1CN(c2nccc3c2c(-c2ccncc2)cn3-c2cccc(F)c2)[C@@H](C)CN1C(=O)C(C)(C)O` [Compound 144, 1-((2R,5S)-4-(1-(3-fluorophenyl)-3-(pyridin-4-yl)-1H-pyrrolo[3,2-c]pyridin-4-yl)-2,5-dimethylpiperazin-1-yl)-2-hydroxy-2-methylpropan-1-one], for which the pEC50 on Human TRPML1 and at Human TRPML3 was less than 5.70 each time.
Regarding `C[C@@H]1CN(c2ncnc3c2c(-c2ccccc2F)cn3-c2cc(C#N)ccn2)[C@@H](C)CN1C(=O)C1(O)CCN(C)CC1` [Compound 123, 2-(5-(2-fluorophenyl)-4-((2S,5R)-4-(4-hydroxy-1-methylpiperidine-4-carbonyl)-2,5-dimethylpiperazin-1-yl)-7H-pyrrolo[2,3-d]pyrimidin-7-yl)isonicotinonitrile], the pEC50 at Human TRPML1 and on Human TRPML3 was less than 5.70 throughout.
On to `C[C@@H]1CN(c2ncnc3c2c(-c2ccncc2)cn3-c2cc(C#N)ccn2)[C@@H](C)CN1C(=O)C1(O)CC1` [Compound 149, 2-(4-((2S,5R)-4-(1-hydroxycyclopropane-1-carbonyl)-2,5-dimethylpiperazin-1-yl)-5-(pyridin-4-yl)-7H-pyrrolo[2,3-d]pyrimidin-7-yl)isonicotinonitrile], for which the pEC50 on Human TRPML1 is 5.70 to 6.30; on Human TRPML3, less than 5.70.
In the case of `C[C@H]1CN(C(=O)C2(O)CCC2)CCN1c1ncnc2c1c(-c1ccccc1)cn2-c1cc(C#N)ccn1` [Compound 118, (S)-2-(4-(4-(1-hydroxycyclobutane-1-carbonyl)-2-methylpiperazin-1-yl)-5-phenyl-7H-pyrrolo[2,3-d]pyrimidin-7-yl)isonicotinonitrile], the pEC50 on Human TRPML1 and at Human TRPML3 was 6.30 to 7.00 each time.
In the case of `CC(C)(O)C(=O)N1CCN(c2ncnc3c2c(-c2ccccc2F)cn3-c2cc(C#N)ccn2)CC1` [Compound 124, 2-(5-(2-fluorophenyl)-4-(4-(2-hydroxy-2-methylpropanoyl)piperazin-1-yl)-7H-pyrrolo[2,3-d]pyrimidin-7-yl)isonicotinonitrile], on Human TRPML1, the pEC50 is 5.70 to 6.30.
On to `C[C@@H]1CN(c2nccc3c2c(-c2ccncc2)cn3-c2cc(F)cc(F)c2)[C@@H](C)CN1C(=O)C(C)(C)O` [Compound 143, 1-((2R,5S)-4-(1-(3,5-difluorophenyl)-3-(pyridin-4-yl)-1H-pyrrolo[3,2-c]pyridin-4-yl)-2,5-dimethylpiperazin-1-yl)-2-hydroxy-2-methylpropan-1-one], for which, at Human TRPML1, the pEC50 is less than 5.70.
Turning to `C[C@@H]1CN(c2ncnc3c2c(-c2nncs2)cn3-c2cc(C#N)ccn2)[C@@H](C)CN1C(=O)C(C)(C)O` [Compound 155, 2-(4-((2S,5R)-4-(2-hydroxy-2-methylpropanoyl)-2,5-dimethylpiperazin-1-yl)-5-(1,3,4-thiadiazol-2-yl)-7H-pyrrolo[2,3-d]pyrimidin-7-yl)isonicotinonitrile], the negative logarithm of the EC50 (pEC50) at Human TRPML1 was less than 5.70.
With `C[C@@H]1CN(c2ncnc3c2c(C2CC2)cn3-c2cc(C#N)ccn2)[C@@H](C)CN1C(=O)C(C)(C)O` [Compound 105, 2-(5-cyclopropyl-4-((2S,5R)-4-(2-hydroxy-2-methylpropanoyl)-2,5-dimethylpiperazin-1-yl)-7H-pyrrolo[2,3-d]pyrimidin-7-yl)isonicotinonitrile], the pEC50 on Human TRPML1 is 5.70 to 6.30.
